According to patent publication US6203976A, “Methods of preparing compositions comprising chemicals capable of transcriptional modulation” (OSI Pharmaceuticals, Inc., priority 1994, dated 2001):
Starred links: 1 amine or outer side, 2 acyl side, 3 side chain; linkers in the order of their positions; H or OH if unused. Positions of bridges follow the written chain, without caps; N, C: chain ends. Non-standard residues stand in square brackets, D forms with d. Residues, ends and D or L forms follow the SMILES beside them. Chains are numbered I, II in the order given. Actinocin(9to1) = Cc1c2oc3c(C)ccc(C(=O)[*:1])c3nc-2c(C(=O)[*:2])c(N)c1=O; NMeV = CN[C@H](C(=O)O)C(C)C; Sar = CNCC(=O)O

Tests used:
[1] = test system: K-ras reporter (K2 cells); assay: Luciferase signal half-life after Actinomycin D, K2 cells; assay type: cell-based, human; conditions: Actinomycin D 25 microg/ml
Source text: 75 micrograms of the pKRAS106 plasmid was linearized by a single restriction endonuclease cleavage within the vector backbone and electroporated into SW480 human colon carcinoma cells. Neomycin resistant clones were isolated and tested for luciferase activity. Clones testing positive for luciferase production were subjected to Southern blot analysis (see below). The best clone (producing the highest signal and carrying a single intact copy of the transfected DNA) was utilized for high throughput screening (designated clone K2).
(§1) When screening for inhibitors rather than inducers of transcription, the half-life of the reporter molecule becomes a crucial parameter in determining the minimal incubation time that would be necessary to allow enough decay of reporter molecules so that the inhibition of their synthesis became visible. […] This experiment measured the combined half-life of luciferase mRNA and of the luciferase protein and compares the rate of signal decay of the CMV reporter to three other well characterized genes; H-ras, K-ras and c-erbB2.
(§2) Cells derived from clones CM1 (CMV), K2 (K-ras), H21 (H-ras) and N2 (c-erbB2) were seeded into 96-well microtiter plates and incubated overnight. […] At the times indicated in FIG. 22, cells were washed with PBS and luciferase activity of Actinomycin-treated cells determined as described in Materials and Methods. […]

CMV reporter (CM1 cells) = assay: Luciferase signal half-life after Actinomycin D, CM1 cells; assay type: cell-based, human; conditions: Actinomycin D 25 microg/ml
Source text: Hep3B hepatocellular carcinoma cells were transfected by electroporation with 75 micrograms of pCM106 which had been linearized by a single ScaI cut within the vector backbone. Neomycin resistant colonies were isolated and tested for luciferase activity. Luciferase positive, neomycin resistant clones were subjected to Southern blot analysis (see below). The best clone, producing the most luciferase activity from a single, correctly integrated vector was selected for use as the CMV reporter cell line in the high throughput screen (this clone was designated CM1).
as §1, §2

[2] = test system: H-ras reporter (H21 cells); assay: Luciferase signal half-life after Actinomycin D, H21 cells; assay type: cell-based; conditions: Actinomycin D 25 microg/ml
Description: When screening for inhibitors rather than inducers of transcription, the half-life of the reporter molecule becomes a crucial parameter in determining the minimal incubation time that would be necessary to allow enough decay of reporter molecules so that the inhibition of their synthesis became visible. The CMV reporter cell line was therefore tested for the time dependency of luciferase activity after treatment of the cells with Actinomycin D, an inhibitor of transcription. This experiment measured the combined half-life of luciferase mRNA and of the luciferase protein and compares the rate of signal decay of the CMV reporter to three other well characterized genes; H-ras, K-ras and c-erbB2.
Cells derived from clones CM1 (CMV), K2 (K-ras), H21 (H-ras) and N2 (c-erbB2) were seeded into 96-well microtiter plates and incubated overnight. At time 0, Actinomycin D (25 microg/ml) was added. At the times indicated in FIG. 22, cells were washed with PBS and luciferase activity of Actinomycin-treated cells determined as described in Materials and Methods. The signal from the treated cells was compared to the luciferase activity of untreated controls.

[3] = test system: neu (c-erbB2) reporter (N2 cells); assay: Luciferase signal half-life after Actinomycin D, N2 cells; assay type: cell-based, human; conditions: Actinomycin D 25 microg/ml
Source text: 75 micrograms of the pNEU106 plasmid was linearized by a single restriction endonuclease cleavage within the vector backbone and electroporated into HTB30 human breast carcinoma cells. Neomycin resistant clones were isolated and tested for luciferase activity. Clones testing positive for luciferase production were subjected to Southern blot analysis (see below). The best clone (producing the highest signal and carrying a single intact copy of the transfected DNA) was utilized for high throughput screening (designated clone N2).
as §1, §2

[4] = test system: human G-CSF (G21) promoter; conditions: Screen III inhibitors; G21 cells; 6 hours
MMTV (M10) promoter = assay: High-throughput luciferase reporter assay, MMTV promoter (Screen III); assay type: cell-based, mouse; conditions: M10 cells, 6 hours; for FOLD INHIBITION RELATIVE TO SOLVENT CONTROL, MMTV: Screen III inhibitors; for FOLD INDUCTION RELATIVE TO SOLVENT CONTROL, MMTV: Screen III activators
[5] = test system: human growth hormone (532) promoter; assay: High-throughput luciferase reporter assay, human Growth Hormone promoter (Screen III); assay type: cell-based; conditions: 532 cells, 6 hours; for FOLD INHIBITION RELATIVE TO SOLVENT CONTROL, hGH: Screen III inhibitors; for FOLD INDUCTION RELATIVE TO SOLVENT CONTROL, hGH: Screen III activators
[6] = test system: human G-CSF (G21) promoter; assay: High-throughput luciferase reporter assay, G-CSF promoter (Screen III); conditions: Screen III activators; G21 cells; 6 hours

| Compound | FOLD INHIBITION RELATIVE TO SOLVENT CONTROL, GCSF [4] [fold] | FOLD INHIBITION RELATIVE TO SOLVENT CONTROL, MMTV (MMTV (M10) promoter) [fold] | FOLD INHIBITION RELATIVE TO SOLVENT CONTROL, hGH [5] [fold] | also measured |
| --- | --- | --- | --- | --- |
| Cc1c2oc3c(C)ccc(C(=O)N[C@@H]4C(=O)N[C@H](C(C)C)C(=O)N5CCC[C@H]5C(=O)N(C)CC(=O)N(C)[C@@H](C(C)C)C(=O)O[C@@H]4C)c3nc-2c(C(=O)N[C@@H]2C(=O)N[C@H](C(C)C)C(=O)N3CCC[C@H]3C(=O)N(C)CC(=O)N(C)[C@@H](C(C)C)C(=O)O[C@@H]2C)c(N)c1=O [Actinomycin D] (I: T[dV]P[Sar][NMeV] / II: T[dV]P[Sar][NMeV]; ester I:1-I:C, II:1-II:C; linker I:N-II:N via Actinocin(9to1)) |  |  |  | Signal Halflife [1]: 6.5 h; Signal Halflife (CMV reporter (CM1 cells)): 6.5 h; Signal Halflife [2]: 10 h; Signal Halflife [3]: 3 h |
| O=S(=O)(O)c1ccc2c(N=Nc3ccc(S(=O)(=O)O)c4ccccc34)c(O)c(S(=O)(=O)O)cc2c1 [compound 512] | 0.81 | 0.68 | 5.26 |  |
| CC1(C)[C@H]2CC[C@]1(C)[C@H](O)C2 [compound 1635] | 0.71 | 0.99 | 9.09 |  |
| CC1(C)[C@H]2CC[C@]1(C)C(=O)C2 [compound 1720] | 0.65 | 0.66 | 4.76 |  |
| Cc1n[nH]c(C)c1Br [compound 2009] | 3.70 | 0.64 | 0.57 |  |
| Nc1nc2c(nc(Br)n2[C@@H]2O[C@H](CO)[C@@H](O)[C@H]2O)c(=O)[nH]1 [compound 2036] | 0.58 | 0.81 | 4.34 |  |
| CCCCCCCCCCCCCCCCBr [compound 2037] | 0.51 | 0.50 | 4.00 |  |
| O=C1CCCCC1Cl (stereo not shown) [compound 2148] |  |  |  | FOLD INDUCTION RELATIVE TO SOLVENT CONTROL, GCSF [6]: 0.45 fold; FOLD INDUCTION RELATIVE TO SOLVENT CONTROL, MMTV (MMTV (M10) promoter): 2.82 fold; FOLD INDUCTION RELATIVE TO SOLVENT CONTROL, hGH [5]: 0.92 fold |
| O=C(N[C@H](CO)[C@H](O)c1ccc([N+](=O)[O-])cc1)C(Cl)Cl [compound 2191] |  |  |  | FOLD INDUCTION RELATIVE TO SOLVENT CONTROL, GCSF [6]: 0.37 fold; FOLD INDUCTION RELATIVE TO SOLVENT CONTROL, MMTV (MMTV (M10) promoter): 7.32 fold; FOLD INDUCTION RELATIVE TO SOLVENT CONTROL, hGH [5]: 0.35 fold |
